Test results: ChEMBL document CHEMBL1201862, “PubChem BioAssay data set” (2004)
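How tested: cells in 96-well plates exposed to compound for 48 hours at five concentrations. GI50: concentration for 50% inhibition of growth.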 Activity calls are given as the source filed them. No stated cut-off is given here; in the data, active = GI50 up to about 1.1 µM and inactive = higher.

What was measured:
Experiment in all cases: NCI anticancer screen, dose series, 48 h
[1] = system: A549
[2] = system: K562
[3] = system: Hs-578T
[4] = system: NCI-H226
[5] = system: LOX IMVI
[6] = system: EKVX
[7] = system: OVCAR-5
[8] = system: PC-3
[9] = system: HCT-15
[10] = system: IGROV-1
[11] = system: SNB-19
[12] = system: Malme-3M
[13] = system: NCI-H23
[14] = system: CAKI-1
[15] = system: NCI-H522
[16] = system: SN12C
[17] = system: HCT-116
[18] = system: BT-549
[19] = system: HOP-62
[20] = system: M19-MEL

| Structure (SMILES) | GI50 [1] | GI50 [2] | GI50 [3] | GI50 [4] | GI50 [5] | GI50 [6] | GI50 [7] | GI50 [8] | GI50 [9] [µM] | GI50 [10] | GI50 [11] | GI50 [12] | GI50 [13] | GI50 [14] | GI50 [15] | GI50 [16] | GI50 [17] | GI50 [18] | GI50 [19] | GI50 [20] |
| --- | --- | --- | --- | --- | --- | --- | --- | --- | --- | --- | --- | --- | --- | --- | --- | --- | --- | --- | --- | --- |
| CC12CCC(C(Br)(Br)C1=O)C2(C)C (centres undefined) | 4.07 µM (inactive) | < 0.0202 µM (active) | 0.251 µM (active) | 2.03 µM (inactive) | 0.611 µM (active) | 0.493 µM (active) | 2.28 µM (inactive) | 1.07 µM (active) | 0.164 | < 0.0422 µM (active) | 9.62 µM (inactive) | 0.056 µM (active) | 0.123 µM (active) | 1.8 µM (inactive) | 0.0208 µM (active) | 0.904 µM (active) | 0.128 µM (active) | 0.173 µM (active) | 6 µM (inactive) |  |
| O=C(O)c1nn(-c2ccccc2-c2nnc(O)nc2O)c(=O)[nH]c1=O | > 100 µM (inactive) | 2.47 µM (inactive) | > 100 µM (inactive) | > 100 µM (inactive) | > 100 µM (inactive) | > 100 µM (inactive) | > 100 µM (inactive) | > 100 µM (inactive) | > 100 | > 100 µM (inactive) | > 100 µM (inactive) | > 100 µM (inactive) | > 100 µM (inactive) | > 100 µM (inactive) | > 100 µM (inactive) | > 100 µM (inactive) | > 100 µM (inactive) | > 100 µM (inactive) | > 100 µM (inactive) |  |
| O=C(O)C1CCCN1C(=O)c1cc(Cl)ccn1 (centres undefined) | > 100 µM (inactive) | > 100 µM (inactive) | > 100 µM (inactive) | > 100 µM (inactive) | > 100 µM (inactive) | > 100 µM (inactive) | > 100 µM (inactive) | > 100 µM (inactive) | > 100 | > 100 µM (inactive) | > 100 µM (inactive) | > 100 µM (inactive) | > 100 µM (inactive) | > 100 µM (inactive) | > 100 µM (inactive) | > 100 µM (inactive) | > 100 µM (inactive) | > 100 µM (inactive) | > 100 µM (inactive) |  |
| O=C(O)c1cc(=O)c2c([nH]c3ccccc32)s1 | > 100 µM (inactive) | > 100 µM (inactive) |  |  |  | > 100 µM (inactive) | > 100 µM (inactive) |  | > 100 | > 100 µM (inactive) | > 100 µM (inactive) | > 100 µM (inactive) | > 100 µM (inactive) | > 100 µM (inactive) | > 100 µM (inactive) | > 100 µM (inactive) |  |  | > 100 µM (inactive) | > 100 µM (inactive) |
| CN1CCCN(C)C1c1cc([N+](=O)[O-])ccc1O | > 100 µM (inactive) | 39 µM (inactive) | 26.1 µM (inactive) | 34.1 µM (inactive) | 19.4 µM (inactive) | 38.6 µM (inactive) | > 100 µM (inactive) | 23.6 µM (inactive) | 43.6 | 26.3 µM (inactive) | 30.8 µM (inactive) | 23.5 µM (inactive) | 89.1 µM (inactive) | > 100 µM (inactive) | 33.9 µM (inactive) | 31.6 µM (inactive) | 32.6 µM (inactive) | 39.5 µM (inactive) | 40.7 µM (inactive) |  |
| COc1c(O)ccc(C2=Cc3ccc(O)cc3OC2)c1OC | 24.8 µM (inactive) | 7.08 µM (inactive) | 19.5 µM (inactive) | 23.4 µM (inactive) | 26.1 µM (inactive) | 15.1 µM (inactive) | 30.1 µM (inactive) | 18.6 µM (inactive) | 14.1 | 25.8 µM (inactive) | 55.3 µM (inactive) | 18.9 µM (inactive) | 22.3 µM (inactive) | 8.81 µM (inactive) | 2.34 µM (inactive) | 23 µM (inactive) | 24.3 µM (inactive) | 23.6 µM (inactive) | 20.9 µM (inactive) |  |
| CC(C(=O)Oc1ccc2ccccc2c1-c1c(O)ccc2ccccc12)c1ccccc1 (centres undefined) | 13.6 µM (inactive) | 15 µM (inactive) |  | 10.1 µM (inactive) |  | 16.8 µM (inactive) | 16.9 µM (inactive) |  | 12.5 | 17.1 µM (inactive) | 14.7 µM (inactive) | 17.4 µM (inactive) | 14.4 µM (inactive) | 11.5 µM (inactive) | > 10 µM (inactive) | 14.7 µM (inactive) | 12.9 µM (inactive) |  | 15.5 µM (inactive) | 15.5 µM (inactive) |
| CC1Oc2c(c(=O)oc3ccccc23)[C@@]1(C)CC1C[C@H](C)C(=O)O1 (some centres undefined) | 87.7 µM (inactive) | 16.8 µM (inactive) | 30.6 µM (inactive) | > 100 µM (inactive) | 27.4 µM (inactive) | > 100 µM (inactive) | 83.8 µM (inactive) | 40.8 µM (inactive) | 18.3 | 33.8 µM (inactive) | 62.4 µM (inactive) | 19.5 µM (inactive) | 19.1 µM (inactive) | 19.1 µM (inactive) | 19.5 µM (inactive) | > 10 µM (inactive) | 15.1 µM (inactive) | 30.8 µM (inactive) | 47.6 µM (inactive) |  |
